In ChEMBL document CHEMBL4765275, “Discovery of novel tertiary amide derivatives as NEDDylation pathway activators to inhibit the tumor progression in vitro and in vivo” (Eur J Med Chem, 2020):
Activity calls are given as the source filed them. The rule behind the calls is not given here.

Experiments:
MGC-803 [1] = test: Induction of morphological changes in human MGC-803 cells assessed as nuclear fragmentation at 50 to 150 nmol/L measured after 48 hrs by DAPI staining based assay; format: functional, cell-based; details: dose 50-150 nmol/L
MGC-803 [2] = test: Induction of apoptosis in human MGC-803 cells assessed as increase in activated caspase-9 expression at 50 to 150 nmol/L measured after 48 hrs by Western blot analysis; format: functional, cell-based; details: dose 50-150 nmol/L
MGC-803 [3] = test: Induction of apoptosis in human MGC-803 cells assessed as down regulation of Bcl-2 expression at 50 to 150 nmol/L measured after 48 hrs by Western blot analysis; format: functional, cell-based; details: dose 50-150 nmol/L
MGC-803 [4] = test: Induction of apoptosis in human MGC-803 cells assessed as upregulation of Fasl expression at 50 to 150 nmol/L measured after 48 hrs by Western blot analysis; format: functional, cell-based; details: dose 50-150 nmol/L
MGC-803 [5] = test: Cell cycle arrest in human MGC-803 cells assessed as accumulation at G1 phase at 100 nmol/L measured after 48 hrs by propidium iodide staining based flow cytometry (reference value: 40.61%); format: functional
MGC-803 [6] = test: Induction of apoptosis in human MGC-803 cells assessed as late apoptotic cells at 100 nmol/L measured after 48 hrs by Annexin V-FITC/propidium iodide staining based flow cytometry (reference value: 5.6%); format: functional
MGC-803 [7] = test: Induction of apoptosis in human MGC-803 cells assessed as upregulation of Bax expression at 50 to 150 nmol/L measured after 48 hrs by Western blot analysis; format: functional, cell-based; details: dose 50-150 nmol/L
MGC-803 [8] = test: Induction of apoptosis in human MGC-803 cells assessed as early apoptotic cells at 100 nmol/L measured after 48 hrs by Annexin V-FITC/propidium iodide staining based flow cytometry (reference value: 2.2%); format: functional
MGC-803 [9] = test: Induction of apoptosis in human MGC-803 cells assessed as viable cells at 100 nmol/L measured after 48 hrs by Annexin V-FITC/propidium iodide staining based flow cytometry (reference value: 91.7%); format: functional; details: read-out: Activity
MGC-803 [10] = test: Induction of apoptosis in human MGC-803 cells assessed as viable cells at 50 nmol/L measured after 48 hrs by Annexin V-FITC/propidium iodide staining based flow cytometry (reference value: 91.7%); format: functional; details: read-out: Activity
[11] = molecular target: T1, NEDD8-activating enzyme E1 regulatory subunit (Homo sapiens) (UniProt Q13564); test: Activation of NAE1-mediated neddylation in human MGC-803 cells assessed as increase in Nedd8-CUL1 adduct formation at 50 to 150 nmol/L measured after 24 hrs by Western blot analysis; format: cell-based; details: filed as activator, dose 50-150 nmol/L
T1 sequence (whole entry): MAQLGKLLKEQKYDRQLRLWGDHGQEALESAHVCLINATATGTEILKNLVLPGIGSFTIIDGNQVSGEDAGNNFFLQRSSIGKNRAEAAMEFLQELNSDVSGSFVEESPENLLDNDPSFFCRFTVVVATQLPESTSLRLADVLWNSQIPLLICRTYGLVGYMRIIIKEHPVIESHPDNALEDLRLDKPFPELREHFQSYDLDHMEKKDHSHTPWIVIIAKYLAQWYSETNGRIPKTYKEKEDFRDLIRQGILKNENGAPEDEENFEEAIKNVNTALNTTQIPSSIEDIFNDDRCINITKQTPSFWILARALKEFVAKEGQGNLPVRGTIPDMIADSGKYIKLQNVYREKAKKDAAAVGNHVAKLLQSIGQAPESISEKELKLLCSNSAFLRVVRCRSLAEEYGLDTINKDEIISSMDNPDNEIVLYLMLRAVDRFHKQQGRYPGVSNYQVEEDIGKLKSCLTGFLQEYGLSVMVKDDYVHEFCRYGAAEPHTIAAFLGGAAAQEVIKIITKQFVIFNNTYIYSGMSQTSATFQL

[12] = molecular target: T1, NEDD8-activating enzyme E1 regulatory subunit (Homo sapiens); test: Activation of NAE1-mediated neddylation in human MGC-803 cells assessed as increase in Nedd8-[…] adduct formation at 50 to 500 nmol/L measured after 30 mins in presence of ATP by Western blot analysis; format: cell-based; details: filed as activator, dose 50-500 nmol/L
MGC-803 [13] = test: Induction of apoptosis in human MGC-803 cells assessed as necrotic cells at 75 nmol/L measured after 48 hrs by Annexin V-FITC/propidium iodide staining based flow cytometry (reference value: 0.5%); format: functional
MGC-803 [14] = test: Induction of apoptosis in human MGC-803 cells assessed as increase in activated caspase-2 expression at 50 to 150 nmol/L measured after 48 hrs by Western blot analysis; format: functional, cell-based; details: dose 50-150 nmol/L
MGC-803 [15] = test: Induction of apoptosis in human MGC-803 cells assessed as down regulation of XIAP expression at 150 nmol/L measured after 24 hrs in presence of NEDDylation inhibitor MLN4924 by Western blot analysis; format: functional, cell-based
MGC-803 [16] = test: Cell cycle arrest in human MGC-803 cells assessed as accumulation at S phase at 100 nmol/L measured after 48 hrs by propidium iodide staining based flow cytometry (reference value: 34.48%); format: functional
MGC-803 [17] = test: Induction of apoptosis in human MGC-803 cells assessed as down regulation of c-IAP1 expression at 150 nmol/L measured after 24 hrs in presence of NEDDylation inhibitor MLN4924 by Western blot analysis; format: functional, cell-based
MGC-803 [18] = test: Toxicity in human MGC-803 cells xenografted mouse assessed as change in body weight at 50 to 150 mg/kg, sc measured after 28 days; format: organism-based; details: in vivo, 672 h, dose 50-150 mg/kg, time 28 day
MGC-803 [19] = test: Antitumor activity against human MGC-803 cells xenografted in mouse assessed as reduction in tumor weight at 150 mg/kg, sc measured after 28 days relative to control; format: functional; parameters: scale not given: the % may be the effect or the level left; details: time 28 day
PC-3 = test: Antiproliferative activity against human PC-3 cells measured after 48 hrs by MTT assay; format: functional, cell-based; details: PC-3, 48 h
MGC-803 [20] = test: Antiproliferative activity against human MGC-803 cells assessed as cell viability measured after 48 hrs in presence of NEDDylation inhibitor MLN4924 by MTT assay relative to control; format: functional
MGC-803 [21] = test: Induction of apoptosis in human MGC-803 cells assessed as increase in cleaved PARP expression at 50 to 150 nmol/L measured after 48 hrs by Western blot analysis; format: functional, cell-based; details: dose 50-150 nmol/L
MGC-803 [22] = test: Cell cycle arrest in human MGC-803 cells assessed as accumulation at G2 phase at 50 nmol/L measured after 48 hrs by propidium iodide staining based flow cytometry (reference value: 24.91%); format: functional
MGC-803 [23] = test: Induction of apoptosis in human MGC-803 cells assessed as late apoptotic cells at 50 nmol/L measured after 48 hrs by Annexin V-FITC/propidium iodide staining based flow cytometry (reference value: 5.6%); format: functional
MGC-803 [24] = test: Cell cycle arrest in human MGC-803 cells assessed as accumulation at S phase at 50 nmol/L measured after 48 hrs by propidium iodide staining based flow cytometry (reference value: 34.48%); format: functional
MGC-803 [25] = test: Antitumor activity against human MGC-803 cells xenografted in mouse assessed as reduction in tumor weight at 100 mg/kg, sc measured after 28 days relative to control; format: functional; parameters: scale not given: the % may be the effect or the level left; details: time 28 day
MGC-803 [26] = test: Induction of apoptosis in human MGC-803 cells assessed as down regulation of c-IAP1 expression at 150 nmol/L measured after 24 hrs in presence of proteasome inhibitor […] by Western blot analysis; format: functional, cell-based
MCF7 = test: Antiproliferative activity against human MCF7 cells measured after 48 hrs by MTT assay; format: functional, cell-based; details: MCF7, 48 h

Activity [11]: Active
Activity [12]: Active
IC50 (PC-3): 1.15 µM
IC50 (MCF7): 0.1 µM
SMILES: COc1ccc(CN(C(=O)Cc2cccs2)c2cc(OC)c(OC)c(OC)c2)cc1
Activity (MGC-803 [1]): Active
Activity (MGC-803 [2]): Active
Activity (MGC-803 [3]): Active
Activity (MGC-803 [4]): Active
Activity (MGC-803 [5]): 37.76%
Activity (MGC-803 [6]): 23.2%
Activity (MGC-803 [7]): Active
Activity (MGC-803 [8]): 42.4%
viability at 0.1 µM (MGC-803 [9]): 32%
viability at 0.05 µM (MGC-803 [10]): 87.7%
Activity (MGC-803 [13]): 2%
Activity (MGC-803 [14]): Active
Activity (MGC-803 [15]): Active
Activity (MGC-803 [16]): 21.52%
Activity (MGC-803 [17]): inactive
Activity (MGC-803 [18]): Non-Toxic
Activity (MGC-803 [19]): 46%
Activity (MGC-803 [20]): 64.2%
Activity (MGC-803 [21]): Active
Activity (MGC-803 [22]): 35.12%
Activity (MGC-803 [23]): 6.5%
Activity (MGC-803 [24]): 27.68%
Activity (MGC-803 [25]): 42%
Activity (MGC-803 [26]): inactive
